Source: patent US20070099877A1, “N-aryl-thienopyrimidin-4-amines and analogs as activators of caspases and inducers of apoptosis and the use thereof” (Cytovia, Inc., priority 2005, published 2007)
Where a name gives a salt, the structure may show the parent alone.

Test system: breast cancer cell line SKBR3
Assay: Caspase cascade activation in SKBR3 cells
Format: cell-based
Details: Homo sapiens, SK-BR-3, 48 h, read-out: Caspase Activation Potency EC50 SKBR3

An EC50 of 77 nM was found for `COc1cc(Nc2ncnc3ccsc23)cc(OC)c1` [Example 12, N-(3,5-Dimethoxyphenyl)thieno[3,2-d]pyrimidin-4-amine hydrochloride] in this work.
